Data from article PMC10786919, “Design-rules for stapled peptides with in vivo activity and their application to Mdm2/X antagonists” (Nature Communications, 2024).
Converted amounts (≈) assume the structure as drawn. Like-named read-outs stand apart in the source and are kept apart here. Positions of bridges follow the written chain, without caps; N, C: chain ends. Non-standard residues stand in square brackets, D forms with d. Residues, ends and D or L forms follow the SMILES beside them. dPhe(4-CF3) = N[C@H](Cc1ccc(C(F)(F)F)cc1)C(=O)O; dTrp(6-F) = N[C@H](Cc1c[nH]c2cc(F)ccc12)C(=O)O; R5 = C=CCCC[C@@](C)(N)C(=O)O

Key:
[1] = Solubility assay (kinetic solubility, PBS pH 7); assay type: physicochemical
Outline: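 Reference standards were made by diluting the 10 mM stock to 100 µM in acetonitrile:methanol:DMSO 10:80:10. Solubility in µM was calculated as the sample peak area divided by the standard peak area, multiplied by the standard concentration.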

[2] = test system: Jump-In T-REx CHO-K1 BLA cells; experiment: cells; assay type: cell-based; conditions: for EC50: read-out: TETCHO: Counterscreen EC50
[3] = Experimental LogD (partition coefficient); conditions: not stated, Partition Coeff LogD
[4] = test system: p53 responsive β-lactamase reporter in HCT116 cells; experiment: cells; assay type: cell-based; conditions: for EC50: read-out: p53 reporter assay EC50
Outline: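 Read-out used the ToxBLAzer Dual Screen for β-lactamase driven by a stably integrated p53-responsive reporter. Assay: 8000 HCT116 cells per well at 0.5% final DMSO. Reported numbers are geometric means over a minimum of three biological replicates.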

HCT116 cells = experiment: Lactate dehydrogenase (LDH) release assay; assay type: cell-based
Outline: (§1)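 Read-out was lactate dehydrogenase release, reflecting loss of membrane integrity, in reporter-engineered HCT116 cells (p53-responsive β-lactamase) seeded at 8000 cells per well. Final DMSO was 0.5%, and reported values are geometric means from three or more biological repeats.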

[5] = Lactate dehydrogenase (LDH) release assay; assay type: cell-based; conditions: read-out: LDH: Cytotoxicity assay EC50
Outline: as §1

| SMILES | solubility kinetic ([1]; pH 7, Solubility) | TETCHO: Counterscreen % Effect ([2]; 0% FBS 4Hr) | EC50 ([2]; 0% FBS 4Hr) | TETCHO: Counterscreen % Effect ([2]; 10% FBS 16Hr) | EC50 ([2]; 10% FBS 16Hr) | logD [3] | EPSA (physchem) | p53 reporter assay % Effect ([4]; 0% FBS 4Hr) | EC50 ([4]; 0% FBS 4Hr) | p53 reporter assay % Effect ([4]; 10% FBS 16Hr) | EC50 ([4]; 10% FBS 16Hr) | LDH: Cytotoxicity assay % Effect (HCT116 cells; 0% FBS 4Hr) | LDH: Cytotoxicity assay % Effect (HCT116 cells; 10% FBS 16Hr) | EC50 ([5]; 0% FBS 4Hr) | EC50 ([5]; 10% FBS 16Hr) | solubility kinetic ([1]; pH 7, aqueous buffer, kinetic from dmso stock, pH 7, PBS, read-out: Solubility) |
| --- | --- | --- | --- | --- | --- | --- | --- | --- | --- | --- | --- | --- | --- | --- | --- | --- |
| CC(C)C[C@@H](NC(=O)[C@@]1(C)CCCC=CCCC[C@@](C)(NC(=O)[C@@H](C)NC(=O)[C@@H](Cc2ccc(O)cc2)NC(=O)[C@@H](Cc2c[nH]c3cc(F)ccc23)NC(=O)[C@@H](C)NC(=O)[C@H](N)[C@H](C)O)C(=O)N[C@H](Cc2ccc(C(F)(F)F)cc2)C(=O)N[C@H](CCC(=O)O)C(=O)N[C@H](CCC(N)=O)C(=O)N1)C(=O)N[C@H](CO)C(N)=O [MP-795] (H-[dT][dA][dTrp(6-F)][dY][dA][R5][dPhe(4-CF3)][dE][dQ][R5][dL][dS]-NH2; staple 6-10) | 1 µM (≈ 1.55 µg/mL) | 35.97% | > 50.4 µM | 0.2467% | > 50.4 µM | 2.32 | 234 A^2 | 142.6% | 5.18 µM | 21.51% | > 50.4 µM | 13.17% | 16.65% | > 50.7 µM | > 50.7 µM | – |
| CC(=O)N[C@@H](C(=O)N[C@H](C)C(=O)N[C@H](Cc1c[nH]c2cc(F)ccc12)C(=O)N[C@H](Cc1ccc(O)cc1)C(=O)N[C@H](C)C(=O)N[C@]1(C)CCCC=CCCC[C@](C)(C(=O)N[C@H](CC(C)C)C(=O)N[C@H](CO)C(=O)N[C@H](C)C(=O)N[C@H](C)C(=O)N[C@H](C)C(=O)N[C@H](C)C(=O)N[C@H](C)C(=O)N[C@H](C)C(=O)N[C@H](C)C(=O)N[C@H](C)C(=O)N[C@H](C)C(N)=O)NC(=O)[C@@H](CCC(N)=O)NC(=O)[C@@H](CCC(=O)O)NC(=O)[C@@H](Cc2ccc(C(F)(F)F)cc2)NC1=O)[C@H](C)O [MP-1230] (Ac-[dT][dA][dTrp(6-F)][dY][dA][R5][dPhe(4-CF3)][dE][dQ][R5][dL][dS][dA][dA][dA][dA][dA][dA][dA][dA][dA]-NH2; staple 6-10) | – | 16.32% | > 50.4 µM | -1.934% | > 50.4 µM | – | 190 A^2 | 14.85% | > 50.4 µM | 35.9% | > 50.4 µM | 4.322% | -2.735% | > 50.7 µM | > 50.7 µM | 16 µM (≈ 35.7 µg/mL) |
